Structures can show the parent of a compound that is named as a salt.

The target of one assay is T1, calcium receptor (Homo sapiens, UniProt P41180).
T1 sequence (P41180 20-1078): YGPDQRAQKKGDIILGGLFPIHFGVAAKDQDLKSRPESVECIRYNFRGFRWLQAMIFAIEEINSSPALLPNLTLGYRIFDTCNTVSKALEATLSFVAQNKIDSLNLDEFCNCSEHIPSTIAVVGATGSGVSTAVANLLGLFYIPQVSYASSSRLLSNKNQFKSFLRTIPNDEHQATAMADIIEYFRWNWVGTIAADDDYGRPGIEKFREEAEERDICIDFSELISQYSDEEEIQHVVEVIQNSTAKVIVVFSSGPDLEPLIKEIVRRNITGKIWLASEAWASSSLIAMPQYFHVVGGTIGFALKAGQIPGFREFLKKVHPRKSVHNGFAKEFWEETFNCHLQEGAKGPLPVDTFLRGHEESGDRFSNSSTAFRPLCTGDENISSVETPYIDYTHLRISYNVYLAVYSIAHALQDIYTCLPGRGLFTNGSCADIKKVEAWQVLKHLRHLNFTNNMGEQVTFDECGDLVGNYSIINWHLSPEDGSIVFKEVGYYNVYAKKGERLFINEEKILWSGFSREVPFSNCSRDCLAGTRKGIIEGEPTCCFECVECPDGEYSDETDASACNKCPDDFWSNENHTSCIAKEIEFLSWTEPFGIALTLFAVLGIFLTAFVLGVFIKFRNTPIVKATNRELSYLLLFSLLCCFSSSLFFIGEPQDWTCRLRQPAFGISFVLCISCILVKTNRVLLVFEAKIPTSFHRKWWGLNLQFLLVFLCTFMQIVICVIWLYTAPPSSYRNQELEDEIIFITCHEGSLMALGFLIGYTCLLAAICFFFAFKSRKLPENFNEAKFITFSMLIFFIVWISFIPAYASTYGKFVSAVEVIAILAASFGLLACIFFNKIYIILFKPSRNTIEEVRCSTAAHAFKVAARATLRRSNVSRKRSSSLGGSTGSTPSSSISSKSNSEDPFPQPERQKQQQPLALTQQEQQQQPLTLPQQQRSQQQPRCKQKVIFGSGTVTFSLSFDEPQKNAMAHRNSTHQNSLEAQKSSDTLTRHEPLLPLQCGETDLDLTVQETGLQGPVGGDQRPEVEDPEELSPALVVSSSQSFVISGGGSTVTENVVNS
Nature of the assay: EC50 (concentration evoking a half-maximal effect) at an inorganic ion receptor / calcium receptor. In kind it is cell-based.
Conditions: not given
From the text:
The EC50 is the concentration of the molecule which evokes a half-maximal effect. The IC50 is the concentration of molecule which causes a half-maximal blocking effect. The EC50 or IC50 can be determined by assaying one or more of the activities of an inorganic ion at an inorganic ion receptor. Preferably, such assays are specific to a particular calcium receptor. For example, assays which measure hormones whose production or secretion is modulated by a particular inorganic ion receptor are preferred.
Nemeth et al., PCT/US93/01642, International Publication Number WO 94/18959. For example, poly(A)^+ mRNA can be obtained from cells expressing a calcium receptor, such as a parathyroid cell, bone osteoclast, juxtaglomerular kidney cell, proximal tubule kidney cell, distal tubule kidney cell, cell of the thick ascending limb of Henle's loop and/or collecting duct, keratinocyte in the epidermis, parafollicular cell in the thyroid (C-cell), intestinal cell, central nervous cell, peripheral nervous system cell, trophoblast in the placenta, platelet, vascular smooth muscle cell, cardiac atrial cell, gastrin-secreting cell, glucagon-secreting cell, kidney mesangial cell, mammary cell, beta cell, fat/adipose cell, immune cell, and GI tract cell. Preferably, the nucleic acid is from a parathyroid cell, C-cell, or osteoclast. More preferably, the nucleic acid encodes a calcium receptor and is present on a plasmid or vector.
The EC50 is the concentration needed to bring the measured effect to its halfway point. As to `C[C@@H](NCCCc1ccccc1Cl)c1cccc2ccccc12` [Compound 12Z, N-3-(2-chlorophenyl)-1-propyl-(R)-1-(1-naphthyl)ethylamine hydrochloride], the EC50 was less than 5 µM.

The same assay, now with this note: concentration of the molecule which evokes a half-maximal effect; preferred agents; cell type and assay read-out not stated; read-out: EC50.
As for `CSc1cccc(C(C)NCCCc2ccccc2)c1` (racemic) [Compound 8J, N-(3-phenylpropyl)-1-(3-thiomethylphenyl)ethylamine hydrochloride], the EC50 is less than 5 µM. As for `COc1cccc([C@@H](C)NCCCc2ccccc2OC)c1` [Compound 8U, N-3-(2-methoxyphenyl)-1-propyl-(R)-3-methoxy-α-methylbenzylamine hydrochloride], the EC50 was less than 5 µM.

As to `C[C@@H](N[C@H](C)c1cccc2ccccc12)c1ccc2ccccc2c1` [Compound 9R, (R)-N-(1-(2-naphthyl)ethyl)-(R)-1-(1-naphthyl)ethylamine hydrochloride], the EC50 is less than 5 µM. `CC(C)c1ccc(CN[C@H](C)c2cccc3ccccc23)cc1` [Compound 11X, N-(4-Isopropylbenzyl)-(R)-1-(1-naphthyl)ethylamine hydrochloride]: the EC50 was less than 5 µM. Still for that read-out and setting: in the case of `COc1cccc([C@@H](C)NCCCc2ccccc2C)c1` [Compound 12U, N-3-(2-methylphenyl)-1-propyl-(R)-3-methoxy-α-methylbenzylamine hydrochloride] it was less than 5 µM; in that of `COc1cccc([C@@H](C)NCCCc2cccc(C)c2)c1` [Compound 12V, N-3-(3-methylphenyl)-1-propyl-(R)-3-methoxy-α-methylbenzylamine hydrochloride], less than 5 µM.

Take `COc1ccc([C@@H](C)N[C@H](C)c2cccc3ccccc23)cc1` [Compound 14U, (R)-N-(1-(4-methoxyphenyl)ethyl)-(R)-1-(1-naphthyl)ethylamine hydrochloride]: the concentration giving a half-maximal response (EC50) is less than 5 µM. The same measure, in the same setting: in the case of `COc1ccc(CN[C@H](C)c2cccc3ccccc23)cc1Cl` [Compound 16M, N-(3-chloro-4-methoxybenzyl)-(R)-1-(1-naphthyl)ethylamine hydrochloride] it was less than 5 µM; in that of `COc1ccc([C@@H](C)N[C@H](C)c2cccc3ccccc23)cc1C` [Compound 16P, (R)-N-(1-(4-Methoxy-3-methylphenyl)ethyl)-(R)-1-(1-naphthyl)ethylamine hydrochloride], less than 5 µM.
